Here are results for 1 substance from US20220380430A1, “Non-Transgenic Functional Rescue of Neuropeptides” (Worcester Polytechnic Institute, priority 2021, published 2022).

No end group written: not given here.

The subject of one assay is him-5 and pdf-1 males. Kind of assay: Excursion (food-leaving) assay after rescue-by-feeding. Format: in vivo, C. elegans. To be noted: Probability of Leaving per hour, beyond 35 mm from food. From the text: We quantified the behavioral activity of pdf-1 lof males using a food-leaving behavior as previously described. Individuals were placed on a small food spot, and track patterns were scored at three different time points (2, 6, 24 hrs) (FIG. 4A). “Never left food” indicate the absence of tracks outside the food spot. […] “Major excursion” indicates the presence of tracks past the 1 cm boundary (FIG. 1B, Excursion Assay). The food-leaving behavior was quantified as a measure of mate-searching behavior. In this behavior well-fed males left food in search of mates and the data is represented as a Probability of Leaving (PL) (FIG. 7A).
The mate searching behavior of pdf-1 mutants was quantified in a food leaving assay. him-5 animals were used as wild-type control to ensure the presence of males. him-5 and pdf-1 animals were fed OP50, scramble peptide, PDF-1A, PDF-1B, or a 1:1 mixture of PDF-1A and PDF-1B cultures. Four to six larval L4 hermaphrodites were passed onto an NGM plate containing […] AMP and 1 mM IPTG with 75 μL of peptide. These worms were grown at 20° C. for about 4 days until the male progeny of the initial L4 worms were young adults. The day prior to the assay, young adult male pdf-1 or him-5 worms were singled onto 60 mm plates containing lawns of either OP50 (NGM plates) or appropriate peptide cultures (NGM containing […] AMP and 1 mM IPTG). To determine the mate searching effects of pdf-1, we performed a food-leaving assay as described previously in Barrios, A., et al., Nat Neurosci 15, 1675-1682 (2012); Lipton, J., et al., The Journal of neuroscience: the official journal of the Society for Neuroscience 24, 7427-7434 (2004); Ryan, D. A. et al. Curr Biol 24, 2509-2517 (2014), with modifications. In this assay, individuals were placed on a small food spot, and track patterns were scored at the indicated times. Assay plates were prepared one day prior to assaying on 100 mm plates with 10 mL of Leaving Assay media (25 mM KPO4 (pH 6.0), 1 mM MgSO4, 1 mM CaCl2), 50 mM NaCl, 2.5 g/L Peptone, 17 g/L Agar). On center of plate, 7 μL of OP50 was added. Plates were lightly covered and stored at room temperature overnight (˜20° C., <40% humidity).
On the day of the assay, a single male was plated on the assay plate and placed in a dark, 20° C. incubator. At 2, 6, and 24 hours after the worms are plated, plates were scored for male worm tracks. Scored were separated into binned ranges. “Never left food” indicates the absence of tracks outside the food spot. […] “Major excursion” indicates the presence of tracks past the 1 cm boundary. The food leaving behavior was quantified at three different time points (2, 6, and 24 hours). (FIG. 4A, FIG. 7A, Table IV).
The mate searching defect of pdf-1 was quantified as a Probability of Leaving per hour (PL) (FIG. 4B, FIG. 7B).
The assay was performed across at least two days per condition, with at least n=50, wherein each assay plate with one male is equal to n=1. In all experiments, the investigators were blinded to genotype. Worm in the >35 mm from the center of food bin were scored as “leavers”. The probability of leaving per hour (Probability of Leaving (PL)) was calculated using an R script developed in Barrios et al., with assistance by (Personal Communications to Barrios, 2020). PL was calculated by the “hazard obtained by fitting an exponential parametric survival model to the censored data using maximum likelihood” (Table IV). The PLh-1 values for all pdf-1 animals fed scramble or peptide rescue were compared to him-5 worms fed scramble using an ANOVA followed by Bonferroni's multiple comparison (FIG. 4B, FIG. 7C).

Another assay deals with ins-6 lof worms. Kind of assay: NaCl chemotaxis assay after rescue-by-feeding. Format: in vivo, C. elegans. The conditions noted are these: ins-6 mutants; 750 mM NaCl. How it is done:
All animals were maintained on bacterial lawns of OP50 E. coli, at 20° C., on NGM agar plates until the start of experiments. Mutant or control animals were transferred onto lawns of DH5α E. coli expressing either scramble peptide or the rescue peptide-of-interest on NGM plates containing […] AMP and 1 mM IPTG. Animals were reared on the peptide-expressing lawns for at least 48 hours at 20° C. before assaying for rescue of mutant phenotype at the appropriate developmental stage.
A salt chemotaxis assay was performed as previously described in Leinwand, S. G. & Chalasani, S. H. Nature neuroscience 16, 1461-1467 (2013); Bargmann, C. I. & Horvitz, H. R. Neuron 7, 729-742 (1991) to test the functionality of ins-6 after rescue-by-feeding. Wild-type (N2) and ins-6 worms were fed either scramble or INS-6 peptide passing 4-6 L4 larval onto an NGM plate containing […] AMP and 1 mM IPTG with 75 μL of peptide OD600=1.0. These worms were grown at 20° C. for about 4 days until the progeny of the initial L4 worms were young adults.
The day prior to testing, a thin, 10 mL layer of agar was added to 10 cm petri dishes to generate a 10 cm Chemotaxis Plates (5 mM KPO4 (pH 6.0), 1 μM MgSO4, 1 μM CaCl2), 20 g/L agar, and 8 g/L Difco Nutrient Broth). To prepare the “high salt” plates, 750 mM NaCl was added prior to plate pouring. The high salt plate were stored at 4° C. for up to one month, while the Chemotaxis Plates were made one day prior to testing. To create the high and low salt plugs, the back end of a Pasteur pipette was used to punch a 5 mm plug out of each plate. These 2 plugs were placed on opposite edges of the plate. A 10 mm radius was be drawn around the location of the plugs (FIG. 1). Plates were stored, lightly covered, overnight at room temperature (˜20° C., <40% humidity). […]
Young adult hermaphrodites are tested in the Chemotaxis Assay with no more than three replicates per day, over a minimum of three days, with 100-200 worms/assay plate. The […] Chemotaxis Index (CI) was calculated as follows: […]

In the case of “NSKLHRGGGRSRTSGSTGSMASHARGSPGLQ-NH2 [SCRAMBLE, scramble control peptide expressed in E. coli DH5α, negative control, reference compound]”, the “PL (confidence interval)” value in the assay on him-5 and pdf-1 males (him-5 males) is 0.07727 (0.06532, 0.09141); in the assay on him-5 and pdf-1 males (pdf-1 males) it was 0.03538 (0.02747, 0.04556). In addition, the “Chemotaxis Index” value in the assay with ins-6 lof worms was “less than 0.4”.
